Measured values from PMC9233935 (Journal of medicinal chemistry, 2022).
pIC50: −log10 of the molar value. In brackets after ≈: the same amount, converted by molar mass. Where two headings read alike, the source gives them in different places.

Tests used:
M. tuberculosis H37Rv = experiment: microbe, parasite or virus in culture; type: cell-based, Mycobacterium tuberculosis; details: for MIC: Mycobacterium tuberculosis, H37RV, read-out: Mtb MIC
Mtb gyrase = Mtb gyrase (Mycobacterium tuberculosis, UniProt P9WG45+P9WG47); experiment: biochemical; type: biochemical
S. aureus ATTC 25923 = experiment: microbe, parasite or virus in culture; details: Staphylococcus aureus, ATTC25923, read-out: Sau MIC

Chain of Mtb gyrase (P9WG45 whole entry, looked up): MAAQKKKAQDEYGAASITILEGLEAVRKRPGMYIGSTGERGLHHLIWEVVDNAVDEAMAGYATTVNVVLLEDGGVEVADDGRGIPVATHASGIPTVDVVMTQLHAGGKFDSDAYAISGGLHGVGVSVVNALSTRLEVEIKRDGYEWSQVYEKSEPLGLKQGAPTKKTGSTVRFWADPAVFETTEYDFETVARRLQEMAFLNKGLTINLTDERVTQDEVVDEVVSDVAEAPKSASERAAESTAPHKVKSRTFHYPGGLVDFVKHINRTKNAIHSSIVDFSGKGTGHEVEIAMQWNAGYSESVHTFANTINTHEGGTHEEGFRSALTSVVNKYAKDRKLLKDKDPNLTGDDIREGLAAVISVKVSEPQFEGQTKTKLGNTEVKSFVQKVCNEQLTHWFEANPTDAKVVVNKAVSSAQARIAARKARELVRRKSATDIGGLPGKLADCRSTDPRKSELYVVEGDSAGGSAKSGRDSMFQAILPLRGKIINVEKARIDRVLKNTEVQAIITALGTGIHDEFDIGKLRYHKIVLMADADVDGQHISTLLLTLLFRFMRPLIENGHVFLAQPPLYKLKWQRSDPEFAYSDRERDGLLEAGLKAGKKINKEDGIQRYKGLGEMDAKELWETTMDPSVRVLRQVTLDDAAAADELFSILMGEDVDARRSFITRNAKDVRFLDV
Chain of Mtb gyrase (P9WG47 whole entry, looked up): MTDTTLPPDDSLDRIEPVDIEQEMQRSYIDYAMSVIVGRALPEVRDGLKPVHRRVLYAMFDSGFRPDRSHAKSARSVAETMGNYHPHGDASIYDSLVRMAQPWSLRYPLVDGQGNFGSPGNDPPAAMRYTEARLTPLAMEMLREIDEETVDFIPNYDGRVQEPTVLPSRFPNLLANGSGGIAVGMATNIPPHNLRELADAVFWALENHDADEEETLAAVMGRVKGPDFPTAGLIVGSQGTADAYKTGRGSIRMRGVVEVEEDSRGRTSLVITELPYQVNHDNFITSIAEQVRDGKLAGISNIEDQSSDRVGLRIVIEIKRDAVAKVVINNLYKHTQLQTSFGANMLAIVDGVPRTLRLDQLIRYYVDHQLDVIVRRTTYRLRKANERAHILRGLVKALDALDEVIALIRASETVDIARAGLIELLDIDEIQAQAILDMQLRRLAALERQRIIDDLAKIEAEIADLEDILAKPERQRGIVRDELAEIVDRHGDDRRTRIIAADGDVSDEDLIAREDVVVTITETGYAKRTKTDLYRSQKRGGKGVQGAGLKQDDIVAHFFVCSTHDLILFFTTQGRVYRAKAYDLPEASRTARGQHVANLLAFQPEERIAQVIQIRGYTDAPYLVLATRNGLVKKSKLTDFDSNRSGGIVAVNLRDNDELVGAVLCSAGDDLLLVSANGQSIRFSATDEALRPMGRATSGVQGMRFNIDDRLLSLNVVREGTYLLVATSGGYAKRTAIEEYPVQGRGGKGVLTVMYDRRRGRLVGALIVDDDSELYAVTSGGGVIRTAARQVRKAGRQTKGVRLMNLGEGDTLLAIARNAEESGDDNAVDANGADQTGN

SMILES: C[C@@H]1CN2c3c(cc4c(N5C(=O)OC[C@@H]5C)noc4c3F)CC3(C(=O)NC(=O)NC3=O)[C@H]2[C@H](C)N1C#N [Compound 38, (2R,4S,4aS)-11-fluoro-2,4-dimethyl-8-((S)-4-methyl-2-oxooxazolidin-3-yl)-2’,4’,6’-trioxo-1,1’,2,3’,4,4a,4’,6’-octahydro-2’H,3H,6H-spiro[isoxazolo[4,5-g]pyrazino[1,2-a]quinoline-5,5’-pyrimidine]-3-carbonitrile]
- fold more active against Mtb than matched pair zoliflodacin (M. tuberculosis H37Rv): ~2 fold

SMILES: C[C@@H]1CN2c3c(cc4c(OC[C@@H]5CCC(=O)N5)noc4c3F)CC3(C(=O)NC(=O)NC3=O)[C@H]2[C@H](C)N1C#N [Compound 42, (2R,4S,4aS)-11-fluoro-2,4-dimethyl-2’,4’,6’-trioxo-8-(((S)-5-oxopyrrolidin-2-yl)methoxy)-1,1’,2,3’,4,4a,4’,6’-octahydro-2’H,3H,6H-spiro[isoxazolo[4,5-g]pyrazino[1,2-a]quinoline-5,5’-pyrimidine]-3-carbonitrile]
- pIC50 (Mtb gyrase): 5.59

SMILES: C[C@@H]1CN2c3c(cc4c(N5C(=O)OC[C@@H]5C)noc4c3F)CC3(C(=O)NC(=O)NC3=O)[C@H]2[C@H](C)O1 [Zoliflodacin 4, zoliflodacin, reference compound]
- MIC (M. tuberculosis H37Rv): 7 µM (≈ 3.41 µg/mL)

SMILES: C[C@@H]1CN2c3c(cc4c(OCC[C@@H]5CCC(=O)N5)noc4c3F)CC3(C(=O)NC(=O)NC3=O)[C@H]2[C@H](C)O1 [Compound 32, (2R,4S,4aS)-11-fluoro-2,4-dimethyl-8-(2-((S)-5-oxopyrrolidin-2-yl)ethoxy)-1,2,4,4a-tetrahydro-2’H,6H-spiro[isoxazolo[4,5-g][1,4]oxazino[4,3-a]quinoline-5,5’-pyrimidine]-2’,4’,6’(1’H,3’H)-trione]
- fold less active against Mtb than 23 (M. tuberculosis H37Rv): ~ 4 fold

SMILES: C[C@@H]1CN2c3c(cc4c(N5CC[C@H](C#N)C5)noc4c3F)CC3(C(=O)NC(=O)NC3=O)[C@H]2[C@H](C)O1 [Compound 19, (S)-1-((2R,4S,4aS)-11-fluoro-2,4-dimethyl-2’,4’,6’-trioxo-1,1’,2,3’,4,4a,4’,6’-octahydro-2’H,6H-spiro[isoxazolo[4,5-g][1,4]oxazino[4,3-a]quinoline-5,5’-pyrimidin]-8-yl)pyrrolidine-3-carbonitrile]
- Mtb gyrase IC50 fold higher (less potent) than moxifloxacin (Mtb gyrase): ≤ 2 fold

SMILES: C[C@@H]1CN2c3c(cc4c(OC[C@@H]5COC(=O)N5)noc4c3F)CC3(C(=O)NC(=O)NC3=O)[C@H]2[C@H](C)O1 [Compound 28, (2R,4S,4aS)-11-fluoro-2,4-dimethyl-8-(((R)-2-oxooxazolidin-4-yl)methoxy)-1,2,4,4a-tetrahydro-2’H,6H-spiro[isoxazolo[4,5-g][1,4]oxazino[4,3-a]quinoline-5,5’-pyrimidine]-2’,4’,6’(1’H,3’H)-trione]
- MIC (S. aureus ATTC 25923): 63 µM (≈ 31.7 µg/mL)

SMILES: C[C@@H]1CN2c3c(cc4c(N5C(=O)OC[C@@H]5C)noc4c3F)CC3(C(=O)NC(=O)NC3=O)[C@H]2[C@H](C)N1O [Compound 35, (2R,4S,4aS)-11-fluoro-3-hydroxy-2,4-dimethyl-8-((S)-4-methyl-2-oxooxazolidin-3-yl)-2,3,4,4a-tetrahydro-1H,2’H,6H-spiro[isoxazolo[4,5-g]pyrazino[1,2-a]quinoline-5,5’-pyrimidine]-2’,4’,6’(1’H,3’H)-trione]
- pIC50 (Mtb gyrase): 3.68

SMILES: C[C@@H]1CN2c3c(cc4c(N5CCC[C@@H](O)C5)noc4c3F)CC3(C(=O)NC(=O)NC3=O)[C@H]2[C@H](C)O1 [Compound 22, (2R,4S,4aS)-11-fluoro-8-((R)-3-hydroxypiperidin-1-yl)-2,4-dimethyl-1,2,4,4a-tetrahydro-2’H,6H-spiro[isoxazolo[4,5-g][1,4]oxazino[4,3-a]quinoline-5,5’-pyrimidine]-2’,4’,6’(1’H,3’H)-trione]
- MIC (S. aureus ATTC 25923): 94 µM (≈ 45.8 µg/mL)

SMILES: C[C@@H]1CN2c3c(cc4c(OC[C@H]5CCC(=O)N5)noc4c3F)CC3(C(=O)NC(=O)NC3=O)[C@H]2[C@H](C)O1 [Compound 24, (2R,4S,4aS)-11-fluoro-2,4-dimethyl-8-(((R)-5-oxopyrrolidin-2-yl)methoxy)-1,2,4,4a-tetrahydro-2’H,6H-spiro[isoxazolo[4,5-g][1,4]oxazino[4,3-a]quinoline-5,5’-pyrimidine]-2’,4’,6’(1’H,3’H)-trione]
- MIC (S. aureus ATTC 25923): > 125 µM

SMILES: CC(=O)N1[C@H](C)CN2c3c(cc4c(N5C(=O)OC[C@@H]5C)noc4c3F)CC3(C(=O)NC(=O)NC3=O)[C@H]2[C@@H]1C [Compound 36, (2R,4S,4aS)-3-acetyl-11-fluoro-2,4-dimethyl-8-((S)-4-methyl-2-oxooxazolidin-3-yl)-2,3,4,4a-tetrahydro-1H,2’H,6H-spiro[isoxazolo[4,5-g]pyrazino[1,2-a]quinoline-5,5’-pyrimidine]-2’,4’,6’(1’H,3’H)-trione]
- pIC50 (Mtb gyrase): < 3.00

SMILES: Cc1nnc(-c2noc3c(F)c4c(cc23)CC2(C(=O)NC(=O)NC2=O)[C@H]2[C@H](C)O[C@H](C)CN42)o1 [Methyl-oxadiazole 5, reference compound]
- fold more potent as inhibitor of Mtb gyrase than moxifloxacin (Mtb gyrase): 5 fold
- fold less active against Mtb than moxifloxacin (M. tuberculosis H37Rv): 10 fold
- MIC (M. tuberculosis H37Rv): 1.7 µM (≈ 0.8 µg/mL)

SMILES: C[C@@H]1CN2c3c(cc4c(N5CC[C@H](N)C5)noc4c3F)CC3(C(=O)NC(=O)NC3=O)[C@H]2[C@H](C)O1 [Compound 16, (2R,4S,4aS)-8-((S)-3-aminopyrrolidin-1-yl)-11-fluoro-2,4-dimethyl-1,2,4,4a-tetrahydro-2’H,6H-spiro[isoxazolo[4,5-g][1,4]oxazino[4,3-a]quinoline-5,5’-pyrimidine]-2’,4’,6’(1’H,3’H)-trione]
- Mtb gyrase IC50 fold higher (less potent) than moxifloxacin (Mtb gyrase): around 2 fold
- fold higher Mtb MIC compared to 8 (M. tuberculosis H37Rv): 9 to16 fold

SMILES: C[C@@H]1CN2c3c(cc4c(OC[C@@H]5CCC(=O)O5)noc4c3F)CC3(C(=O)NC(=O)NC3=O)[C@H]2[C@H](C)O1 [Compound 26, (2R,4S,4aS)-11-fluoro-2,4-dimethyl-8-(((S)-5-oxotetrahydrofuran-2-yl)methoxy)-1,2,4,4a-tetrahydro-2’H,6H-spiro[isoxazolo[4,5-g][1,4]oxazino[4,3-a]quinoline-5,5’-pyrimidine]-2’,4’,6’(1’H,3’H)-trione]
- fold less active against Mtb than 23 (M. tuberculosis H37Rv): 2- to 4 fold

SMILES: C[C@@H]1CN2c3c(cc4c(OC[C@H]5CCC(=O)O5)noc4c3F)CC3(C(=O)NC(=O)NC3=O)[C@H]2[C@H](C)O1 [Compound 27, (2R,4S,4aS)-11-fluoro-2,4-dimethyl-8-(((R)-5-oxotetrahydrofuran-2-yl)methoxy)-1,2,4,4a-tetrahydro-2’H,6H-spiro[isoxazolo[4,5-g][1,4]oxazino[4,3-a]quinoline-5,5’-pyrimidine]-2’,4’,6’(1’H,3’H)-trione]
- fold less active against Mtb than 23 (M. tuberculosis H37Rv): 2- to 4 fold

SMILES: C[C@@H]1CN2c3c(cc4c(N5CC[C@H](CO)C5)noc4c3F)CC3(C(=O)NC(=O)NC3=O)[C@H]2[C@H](C)O1 [Compound 14, (2R,4S,4aS)-11-fluoro-8-((S)-3-(hydroxymethyl)pyrrolidin-1-yl)-2,4-dimethyl-1,2,4,4a-tetrahydro-2’H,6H-spiro[isoxazolo[4,5-g][1,4]oxazino[4,3-a]quinoline-5,5’-pyrimidine]-2’,4’,6’(1’H,3’H)-trione]
- Mtb gyrase IC50 fold higher (less potent) than moxifloxacin (Mtb gyrase): ≤ 2 fold

SMILES: C[C@@H]1CN2c3c(cc4c(-n5cncn5)noc4c3F)CC3(C(=O)NC(=O)NC3=O)[C@H]2[C@H](C)N1C#N [Compound 39, 11-fluoro-2,4-dimethyl-2’,4’,6’-trioxo-8-(1H-1,2,4-triazol-1-yl)-1,1’,2,3’,4,4a,4’,6’-octahydro-2’H,3H,6H-spiro[isoxazolo[4,5-g]pyrazino[1,2-a]quinoline-5,5’-pyrimidine]-3-carbonitrile]
- fold more active against Mtb than matched pair 7 (M. tuberculosis H37Rv): 2 fold
- MIC (M. tuberculosis H37Rv; 192 h): 0.9 µM (≈ 0.431 µg/mL)

SMILES: C[C@@H]1CN2c3c(cc4c(OC[C@H]5COC(=O)N5)noc4c3F)CC3(C(=O)NC(=O)NC3=O)[C@H]2[C@H](C)O1 [Compound 29, (2R,4S,4aS)-11-fluoro-2,4-dimethyl-8-(((S)-2-oxooxazolidin-4-yl)methoxy)-1,2,4,4a-tetrahydro-2’H,6H-spiro[isoxazolo[4,5-g][1,4]oxazino[4,3-a]quinoline-5,5’-pyrimidine]-2’,4’,6’(1’H,3’H)-trione]
- Mtb MIC (M. tuberculosis H37Rv): 2.0 µM
- MIC (M. tuberculosis H37Rv): 2 µM (≈ 1.01 µg/mL)

SMILES: C[C@@H]1CN2c3c(cc4c(OC[C@H]5CNC(=O)C5)noc4c3F)CC3(C(=O)NC(=O)NC3=O)[C@H]2[C@H](C)O1 [Compound 31, (2R,4S,4aS)-11-fluoro-2,4-dimethyl-8-(((R)-5-oxopyrrolidin-3-yl)methoxy)-1,2,4,4a-tetrahydro-2’H,6H-spiro[isoxazolo[4,5-g][1,4]oxazino[4,3-a]quinoline-5,5’-pyrimidine]-2’,4’,6’(1’H,3’H)-trione]
- Mtb MIC (M. tuberculosis H37Rv): 2.0 µM
- MIC (M. tuberculosis H37Rv): 2 µM (≈ 1 µg/mL)

SMILES: C[C@@H]1CN2c3c(cc4c(N5CC[C@@](C)(O)C5)noc4c3F)CC3(C(=O)NC(=O)NC3=O)[C@H]2[C@H](C)O1 [Compound 15, 11-fluoro-8-(3-hydroxy-3-methylpyrrolidin-1-yl)-2,4-dimethyl-1,2,4,4a-tetrahydro-2’H,6H-spiro[isoxazolo[4,5-g][1,4]oxazino[4,3-a]quinoline-5,5’-pyrimidine]-2’,4’,6’(1’H,3’H)-trione]
- MIC (M. tuberculosis H37Rv; 192 h): > 125 µM

SMILES: C[C@@H]1CN2c3c(cc4c(OC[C@@H]5CCC(=O)N5C)noc4c3F)CC3(C(=O)NC(=O)NC3=O)[C@H]2[C@H](C)O1 [Compound 25, (2R,4S,4aS)-11-fluoro-2,4-dimethyl-8-(((S)-1-methyl-5-oxopyrrolidin-2-yl)methoxy)-1,2,4,4a-tetrahydro-2’H,6H-spiro[isoxazolo[4,5-g][1,4]oxazino[4,3-a]quinoline-5,5’-pyrimidine]-2’,4’,6’(1’H,3’H)-trione]
- fold less active against Mtb than 23 (M. tuberculosis H37Rv): 4 fold

SMILES: Cc1nnc(-c2noc3c(F)c4c(cc23)CC2(C(=O)NC(=O)NC2=O)[C@H]2[C@H](C)[C@@H](O)[C@H](C)CN42)o1 [Compound 45, (2R,3S,4S,4aR)-11-fluoro-3-hydroxy-2,4-dimethyl-8-(5-methyl-1,3,4-oxadiazol-2-yl)-2,3,4,4a-tetrahydro-1H,2’H,6H-spiro[isoxazolo[4,5-g]pyrido[1,2-a]quinoline-5,5’-pyrimidine]-2’,4’,6’(1’H,3’H)-trione]
- fold reduction in Mtb activity relative to matched pair 5 (M. tuberculosis H37Rv): 10 fold
